Results as given in patent US20200078468A1, “NEUROTENSIN RECEPTOR BINDING CONJUGATES AND FORMULATIONS THEREOF” (priority 2016, published 2020).
Numbered stars: 1 amine (or outer) side, 2 acyl side, 3 side chain; on linkers, the order of the positions; unused ones are H or OH. Bridge positions count the residues as written; N and C are the ends. Square brackets hold non-standard residues; d marks the D form. Peptide text beside a SMILES is read from it. I, II: the chains in the order shown. * marks the point of attachment. X5 = CC(C)C[C@H](NC(=O)[C@H](Cc1ccccc1)NC(=O)CCCCCN1C(=O)CC(*)C1=O)B1O[C@@H]2[C@@H]3C[C@H](C[C@]2(C)O1)C3(C)C; SN38(20-O) = CCc1c2c(nc3ccc(O)cc13)-c1cc3c(c(=O)n1C2)COC(=O)[C@@]3(CC)O*; Hexanoyl(6-succinimido-3yl) = O=C1CC([*:1])C(=O)N1CCCCCC(=O)[*:2]; Pen = CC(C)(S)[C@H](N)C(=O)O; Tle = CC(C)(C)[C@H](N)C(=O)O

system: SW48 (human colon cancer cells); test: inhibition of SW48 cell proliferation (CellTiter Glo); assay type: cell-based; settings: NTSR1 scrambled compound; 72 hrs; read-out: SW-48 proliferation IC50
Description: Conjugates were assessed in an in vitro assay evaluating inhibition of cell proliferation. SW48 (human colon cancer cells, ATCC®), cells were plated in 96 well, flat-bottomed plates (Costar) at a concentration of 5,000 cells/well. Cells were then incubated at 37° C. with 5% CO2 for 24 hrs. After 24 hrs, cells were treated with 0.01% DMSO or compound. Compounds were added at a starting dose of 10 μM and three fold serial dilutions were done for a total often points. Following compound addition, cells were incubated at 37° C. with 5% CO2 for 72 hrs. Proliferation was measured by CellTiter Glo reagent using the standard protocol (Promega) and a Glomax multi+detection system (Promega). Percent proliferation inhibition was calculated using the following formula: % inhibition=(control−treatment)/control*100. Control is defined as vehicle alone. IC50 curves were generated using the nonlinear regression analysis (four parameter) with GraphPad Prism 6.
Conjugates are assessed for receptor-dependent cytotoxicity by the difference between an NTSR1-targeting conjugate, and the corresponding conjugate with the same linker moiety and active agent where the NTSR1-targeting domain has been scrambled.

Row | Compound | IC50
1 | COc1cccc2c1C(=O)c1c(O)c3c(c(O)c1C2=O)C[C@@](O)(C(=O)CO)C[C@@H]3O[C@H]1C[C@H](NC(=O)OCc2ccc(NC(=O)[C@H](CCCNC(N)=O)NC(=O)[C@@H](NC(=O)CCCCCN3C(=O)CC(SC(C)(C)[C@H](NC(C)=O)C(=O)N4CCC[C@H]4C(=O)N[C@@H](CC(C)C)C(=O)N4CCC[C@H]4C(=O)N[C@@H](CCCNC(=N)N)C(=O)N[C@H](C(=O)N[C@@H](CCCNC(=N)N)C(=O)N[C@@H](Cc4ccc(O)cc4)C(=O)O)C(C)(C)C)C3=O)C(C)C)cc2)[C@H](O)[C@H](C)O1 (stereo partly drawn) [Compound 89] | 2580 nM
2 | CO[C@H]1C(=O)[C@]2(C)[C@@H](OC)C[C@H]3OC[C@@]3(OC(C)=O)[C@H]2[C@H](OC(=O)c2ccccc2)[C@]2(O)C[C@H](OC(=O)[C@H](OC(=O)N(C)CCCNC(=O)CNC(=O)[C@H](CC(C)C)NC(=O)[C@H](Cc3ccccc3)NC(=O)CNC(=O)CCCCCN3C(=O)CC(SCCC(=O)NCCCC[C@H](NC(C)=O)C(=O)N4CCC[C@H]4C(=O)N[C@@H](CC(C)C)C(=O)N4CCC[C@H]4C(=O)N(C)[C@@H](CCCNC(=N)N)C(=O)N[C@H](C(=O)N[C@@H](CCCNC(=N)N)C(=O)N[C@@H](Cc4ccc(O)cc4)C(=O)O)C(C)(C)C)C3=O)[C@@H](NC(=O)OC(C)(C)C)c3ccccc3)C(C)=C1C2(C)C (stereo partly drawn) [Compound 74] | > 10000 nM
3 | COc1cccc2c1C(=O)c1c(O)c3c(c(O)c1C2=O)C[C@@](O)(C(=O)CO)C[C@@H]3O[C@H]1C[C@H](NC(=O)OCCSSC(C)(C)[C@H](NC(C)=O)C(=O)N2CCC[C@H]2C(=O)N[C@@H](CC(C)C)C(=O)N2CCC[C@H]2C(=O)N[C@@H](CCCNC(=N)N)C(=O)N[C@H](C(=O)N[C@@H](CCCNC(=N)N)C(=O)N[C@@H](Cc2ccc(O)cc2)C(=O)O)C(C)(C)C)[C@H](O)[C@H](C)O1 [Compound 88] | 1940 nM
4 | COc1cc2cc(c1Cl)N(C)C(=O)C[C@H](OC(=O)[C@H](C)N(C)C(=O)CCSC1CC(=O)N(CCCNC(=O)CNC(=O)[C@H](CC(C)C)NC(=O)[C@H](Cc3ccccc3)NC(=O)CNC(=O)CCCCCN3C(=O)CC(SCCC(=O)NCCOCCOCCC(=O)NCCCC[C@H](NC(C)=O)C(=O)N4CCC[C@H]4C(=O)N[C@@H](CC(C)C)C(=O)N4CCC[C@H]4C(=O)N(C)[C@@H](CCCNC(=N)N)C(=O)N[C@H](C(=O)N[C@@H](CCCNC(=N)N)C(=O)N[C@@H](Cc4ccc(O)cc4)C(=O)O)C(C)(C)C)C3=O)C1=O)[C@]1(C)O[C@H]1[C@H](C)[C@@H]1C[C@@](O)(NC(=O)O1)[C@H](OC)/C=C/C=C(\C)C2 (stereo partly drawn) [Compound 83] | 1830 nM
5 | CO[C@H]1C(=O)[C@]2(C)[C@@H](OC)C[C@H]3OC[C@@]3(OC(C)=O)[C@H]2[C@H](OC(=O)c2ccccc2)[C@]2(O)C[C@H](OC(=O)[C@H](OC(=O)CCCCCN3C(=O)CC(SC(C)(C)[C@H](NC(C)=O)C(=O)N4CCC[C@H]4C(=O)N[C@@H](CC(C)C)C(=O)N4CCC[C@H]4C(=O)N[C@@H](CCCNC(=N)N)C(=O)N[C@H](C(=O)N[C@@H](CCCNC(=N)N)C(=O)N[C@@H](Cc4ccc(O)cc4)C(=O)O)C(C)(C)C)C3=O)[C@@H](NC(=O)OC(C)(C)C)c3ccccc3)C(C)=C1C2(C)C (stereo partly drawn) [Compound 72] | 368 nM
6 | CCc1c2c(nc3ccc(O)cc13)-c1cc3c(c(=O)n1C2)COC(=O)[C@@]3(CC)OC(=O)OCCSSC(C)(C)[C@H](NC(C)=O)C(=O)N1CCC[C@H]1C(=O)N[C@@H](CC(C)C)C(=O)N1CCC[C@H]1C(=O)N[C@@H](CCCNC(=N)N)C(=O)N[C@H](C(=O)N[C@@H](CCCNC(=N)N)C(=O)N[C@@H](Cc1ccc(O)cc1)C(=O)O)C(C)(C)C [Compound 97] | 122 nM

same assay, conditions: NTSR1 targeted compound; 72 hrs; read-out: SW-48 proliferation IC50

Row | Compound | IC50
7 | CCc1c2c(nc3ccc(O)cc13)-c1cc3c(c(=O)n1C2)COC(=O)[C@@]3(CC)OC(=O)CNC(=O)CNC(=O)[C@H](CC(C)C)NC(=O)[C@H](Cc1ccccc1)NC(=O)CNC(=O)CCCCCN1C(=O)CC(SC(C)(C)[C@H](NC(C)=O)C(=O)N2CCC[C@H]2C(=O)N[C@@H](CCCCN)C(=O)N[C@@H](CCCNC(=N)N)C(=O)N2CCC[C@H]2C(=O)N[C@@H](Cc2ccc(O)cc2)C(=O)N[C@H](C(=O)N[C@@H](CC(C)C)C(=O)O)C(C)(C)C)C1=O (stereo partly drawn) [Compound 68] (I: Ac-[Pen]PKRPY[Tle]L-OH / II: GFLGG-{SN38(20-O)}; linker I:1-II:N via Hexanoyl(6-succinimido-3yl)) | 800 nM
8 | CC(=O)N[C@H](C(=O)N1CCC[C@H]1C(=O)N[C@@H](CCCNC(=N)N)C(=O)N[C@@H](CCCNC(=N)N)C(=O)N1CCC[C@H]1C(=O)N[C@@H](Cc1ccc(O)cc1)C(=O)N[C@H](C(=O)N[C@@H](CC(C)C)C(=O)O)C(C)(C)C)C(C)(C)SC1CC(=O)N(CCCCCC(=O)N[C@@H](Cc2ccccc2)C(=O)N[C@@H](CC(C)C)B2O[C@@H]3[C@@H]4C[C@H](C[C@]3(C)O2)C4(C)C)C1=O (stereo partly drawn) [Compound 1] (Ac-[Pen](X5)PRRPY[Tle]L-OH) | > 10000 nM
9 | CO[C@H]1C(=O)[C@]2(C)[C@@H](OC)C[C@H]3OC[C@@]3(OC(C)=O)[C@H]2[C@H](OC(=O)c2ccccc2)[C@]2(O)C[C@H](OC(=O)[C@H](OC(=O)N(C)CCN(C)C(=O)OCc3ccc(NC(=O)[C@H](CCCNC(N)=O)NC(=O)[C@@H](NC(=O)CCCCCN4C(=O)CC(SC(C)(C)[C@H](NC(C)=O)C(=O)N5CCC[C@H]5C(=O)N[C@@H](CCCNC(=N)N)C(=O)N[C@@H](CCCNC(=N)N)C(=O)N5CCC[C@H]5C(=O)N[C@@H](Cc5ccc(O)cc5)C(=O)N[C@H](C(=O)N[C@@H](CC(C)C)C(=O)O)C(C)(C)C)C4=O)C(C)C)cc3)[C@@H](NC(=O)OC(C)(C)C)c3ccccc3)C(C)=C1C2(C)C (stereo partly drawn) [Compound 5] | 1700 nM
10 | CO[C@H]1C(=O)[C@]2(C)[C@@H](OC)C[C@H]3OC[C@@]3(OC(C)=O)[C@H]2[C@H](OC(=O)c2ccccc2)[C@]2(O)C[C@H](OC(=O)[C@H](OC(=O)N(C)CCN(C)C(=O)OCc3ccc(NC(=O)[C@H](CCCNC(N)=O)NC(=O)[C@@H](NC(=O)CCCCCN4C(=O)CC(SC(C)(C)[C@H](NC(C)=O)C(=O)N5CCC[C@H]5C(=O)N[C@@H](CCCCN)C(=O)N(C)[C@@H](CCCNC(=N)N)C(=O)N5CCC[C@H]5C(=O)N[C@@H](Cc5ccc(O)cc5)C(=O)N[C@H](C(=O)N[C@@H](CC(C)C)C(=O)O)C(C)(C)C)C4=O)C(C)C)cc3)[C@@H](NC(=O)OC(C)(C)C)c3ccccc3)C(C)=C1C2(C)C (stereo partly drawn) [Compound 8] | 2450 nM
11 | CC[C@H](C)[C@@H]([C@@H](CC(=O)N1CCC[C@H]1[C@H](OC)[C@@H](C)C(=O)N[C@H](C)[C@@H](O)c1ccccc1)OC)N(C)C(=O)[C@@H](NC(=O)[C@H](C(C)C)N(C)C(=O)OCc1ccc(NC(=O)[C@H](CCCNC(N)=O)NC(=O)[C@@H](NC(=O)CCCCCN2C(=O)CC(SCCC(=O)NCCOCCOCCC(=O)NCCCC[C@H](NC(C)=O)C(=O)N3CCC[C@H]3C(=O)N(C)[C@@H](CCCNC(=N)N)C(=O)N[C@@H](CCCNC(=N)N)C(=O)N3CCC[C@H]3C(=O)N[C@@H](Cc3ccc(O)cc3)C(=O)N[C@H](C(=O)N[C@@H](CC(C)C)C(=O)O)C(C)(C)C)C2=O)C(C)C)cc1)C(C)C (stereo partly drawn) [Compound 60] | 44.6 nM
12 | COc1cc2cc(c1Cl)N(C)C(=O)C[C@H](OC(=O)[C@H](C)N(C)C(=O)CCSC1CC(=O)N(CCCNC(=O)CNC(=O)[C@H](CC(C)C)NC(=O)[C@H](Cc3ccccc3)NC(=O)CNC(=O)CCCCCN3C(=O)CC(SCCC(=O)NCCOCCOCCOCCOCCOCCOCCOCCOCCC(=O)NCCCC[C@H](NC(C)=O)C(=O)N4CCC[C@H]4C(=O)N(C)[C@@H](CCCNC(=N)N)C(=O)N[C@@H](CCCNC(=N)N)C(=O)N4CCC[C@H]4C(=O)N[C@@H](Cc4ccc(O)cc4)C(=O)N[C@H](C(=O)N[C@@H](CC(C)C)C(=O)O)C(C)(C)C)C3=O)C1=O)[C@]1(C)O[C@H]1[C@H](C)[C@@H]1C[C@@](O)(NC(=O)O1)[C@H](OC)/C=C/C=C(\C)C2 (stereo partly drawn) [Compound 26] | 5 nM
